Measurements taken from patent publication US5278181A, “Soluble alkyl[5-[amino (phenyl)methyl]-1H-benzimidazol-2-yl] carbamate anthelmintics” (priority 1992, dated 1994).
“And” between values parts separate entries of the source, which are not always exact repeats. Identical values can stand only once.

What was measured:
Brugia pahangi [1] = assay: Antifilarial dual infection screen in jirds: adult B. pahangi burden; assay type: in vivo, in Mongolian jirds
Description: (§1) Dual infections of the filarial worms Brugia pahangi and Acanthocheilonema viteae in jirds are used routinely for antifilarial screening [McCall, J. W., McTier, T. L., and Rowan, S. J., "In vivo models for evaluating potential antifilarial agents", Onchocerciasis/Filariasis (Proceedings of a Symposium sponsored by the World Health Organization), Kalamazoo, Mich., Apr. 8-10, 23-24 (1986)].
For this dual infection screen, male Mongolian jirds weighing 50-60 g are infected SC with 10 (5 male and 5 female) adult A. viteae, transplanted under sodium pentobarbital anesthesia (48 mg/kg) from donor hamsters infected SC 8 weeks earlier. Two weeks later, 20 (10 male and 10 female) adult B. pahangi, taken from donor jirds infected IP 8 weeks earlier, are transplanted into the peritoneal cavity of each jird under sodium pentobarbital anesthesia. After an additional week, when the jirds have acceptable levels of microfilaremia, they are randomly allocated to treatment groups of 3 animals each and a nontreated group of 4-6 animals. Microfilaremia is determined on days 0 (just prior to the first dose), 4 and 56 post-treatment. Unless indicated otherwise, compounds are suspended in hydroxyethylcellulose (0.5%) - Tween 80 (0.1%) and administered SC at 100 mg/kg/day for 5 consecutive days. All jirds are killed on day 56 post-treatment to determine the effects of drugs on adults of A. viteae and B. pahangi. Live worms are identified as to species, noted as to sex, and counted. The number of dead and/or encapsulated worms is also recorded. A reduction of ≥80% in microfilaremia or ≥50% in adult worm burden (either species) compared with pre-treatment microfilaremia or non-treated control worm burden, respectively, is considered to be significant. For secondary testing with this dual infection screen, groups of 7 animals each are used. For oral dosing, drugs are dissolved or suspended in hydroxyethylcellulose - Tween 80 and administered by gavage.

Brugia pahangi [2] = assay: Antifilarial effect in beagle dogs infected with Brugia pahangi; assay type: in vivo; settings: for Dogs cured/Treated / Percent reduction Macrofilariae / Percent reduction Microfilariae: PO
Description: The infective larvae of B. pahangi were produced and collected as described by McCall [J. Georgia Entomol. Soc. 16:283-293, (1981)]. The dogs were given 100 L3 of B. pahangi by subcutaneous injection (SC) into the dorsum of each hind paw or 200 L3 in one hind paw (i.e., a total inoculum of 200 L3 per dog).
The dogs were randomly allocated to treatment groups containing 4 dogs. The dogs were divided by sex and ranked by declining baseline microfilarial counts (average count based on the 5 bleedings made before the day of treatment). Those dogs which were amicrofilaremic or had very few microfilariae were excluded from the trial. Of the remaining dogs, those with the highest baseline microfilaremias were assigned to seven-dog replicates. The sex of the dogs within three of the replicates was the same, while the fourth replicate contained dogs of both sexes. The dogs of a given sex with the highest levels of microfilaremia were placed in the same replicate. The next set of dogs of that sex with the next highest levels of microfilaremia was assigned to the next replicate, and so on until all of the replicates were filled. The dogs within each complete replicate were assigned to test groups using a table of random numbers [Ostle and Mensing, Statistics in Research, Third Edition, Iowa State University Press, Ames, Iowa, pp. 560-563, (1975)]. The test groups were likewise assigned to either control or treatment groups using the table of random numbers.
The first day of treatment, day 0, was approximately 144 days after infection. Drugs were administered orally as a 10% suspension in HEC-Tween 80 or in soft gelatin capsules. Drugs were administered intramuscularly or subcutaneously as a 10% suspension in peanut oil or in HEC-Tween 80. Groups of four dogs served in sham-treated controls in each experiment. All of the treatments were given by IM injection in the dorsal lumbar muscles.
All dogs were observed frequently during each day of treatment and daily throughout the remainder of the study for any signs of reactions. In addition, the hair was shaved at the injection sites to facilitate the observation of possible tissue irritation resulting from treatment.
Blood was collected from each dog on days 51, 43, 27, 19, and 5 before treatment to determine baseline microfilaremias and allocate the dogs to treatment groups. Blood was then collected from all dogs on the day before treatment on day -1, on days 7, 10, 14, 21, 28, 35, 42, 49, and 56 days after treatment. All bleedings were done at approximately the same time of day (11:00-12:00 E.S.T.). Two 20-μl blood films were prepared from each sample and stained with giemsa. Microfilarial counts were made from the 2 blood films.
The dogs were euthanized for necropsy either two or six months after the first day of treatment. Just prior to euthanasia, the dogs were given a subcutaneous injection (SC) of a two percent solution of Evans blue into the dorsum of both hind paws in order to help delineate the lymphatic vessels. This was followed at least 30 minutes later with a lethal dose of Fatal-Plus® (Vortech Pharmaceuticals, Dearborn, Mich.). A limited necropsy was performed on each dog with examination of the afferent and efferent lymphatics of both hindlimbs and the popliteal, inguinal, internal and external iliac, and lumbar lymph nodes. Any live or dead worms seen were removed. These vessels and lymph nodes were removed, teased, and soaked overnight in normal saline to allow any worms to migrate out of the tissues. The condition of the worms, their sex and number, and the location from which they were recovered were noted.
Effectiveness against the adult parasites was determined as follows: [formula] Effectiveness against microfilariae for a given day after treatment was determined as follows: [formula]
The adult B. pahangi counts and the microfilarial counts were compared using a one way analysis of variance (ANOVA). […]

B. pahangi and A. viteae = assay: Antifilarial activity in jirds, dual infection, summary in words; assay type: in vivo; settings: both oral and parenteral routes
Description: as §1
For this dual infection screen, male Mongolian jirds weighing 50-60 g are infected SC with 10 (5 male and 5 female) adult A. viteae, transplanted under sodium pentobarbital anesthesia (48 mg/kg) from donor hamsters infected SC 8 weeks earlier. Two weeks later, 20 (10 male and 10 female) adult B. pahangi, taken from donor jirds infected IP 8 weeks earlier, are transplanted into the peritoneal cavity of each jird under sodium pentobarbital anesthesia. After an additional week, when the jirds have acceptable levels of microfilaremia, they are randomly allocated to treatment groups of 3 animals each and a nontreated group of 4-6 animals. Microfilaremia is determined on days 0 (just prior to the first dose), 4 and 56 post-treatment. […] Live worms are identified as to species, noted as to sex, and counted. The number of dead and/or encapsulated worms is also recorded. […]

physchem = settings: water
[3] = 50(34 free base) mg/kg/day bid × 5, gelatin capsules, not significantly different from control
[4] = 100(78 free base) mg/kg/day bid × 5, gelatin capsules
[5] = 200(155 free base) mg/kg/day bid × 5, HEC-Tween 80
[6] = 200(155 free base) mg/kg/day bid × 5, gelatin capsules

COC(=O)Nc1nc2cc(C(N)c3ccc(F)cc3)ccc2[nH]1.Cl.Cl (racemic) [Example 2, Methyl (±)-[5-[Amino(4Fluorophenyl)Methyl]-1H-Benzimidazol-2-yl]Carbamate Dihy drochloride Salt]
% Macrofilarial reduction, B. pahangi (Brugia pahangi [1]; 1.56 mg/kg/day × 5 days, SC, day 56): 22% | % Macrofilarial reduction, B. pahangi (Brugia pahangi [1]; 3.13 mg/kg/day × 5 days, SC, day 56, 3.13 mg/kg/day): 84% and 88% | % Macrofilarial reduction, B. pahangi (Brugia pahangi [1]; 6.25 mg/kg/day × 5 days, SC, day 56, 6.25 mg/kg/day): 96% and 98% | % Macrofilarial reduction, B. pahangi (Brugia pahangi [1]; 12.5 mg/kg/day × 1 day, SC, day 56): 72% | % Macrofilarial reduction, B. pahangi (Brugia pahangi [1]; 12.5 mg/kg/day × 5 days, SC, day 56): 100% | % Macrofilarial reduction, B. pahangi (Brugia pahangi [1]; 25 mg/kg/day × 1 day, SC, day 56): 100% | % Macrofilarial reduction, B. pahangi (Brugia pahangi [1]; 25 mg/kg/day × 5 days, SC, day 56): 100% | % Macrofilarial reduction, B. pahangi (Brugia pahangi [1]; 75 mg/kg/day × 5 days, oral, day 56): 30% | % Macrofilarial reduction, B. pahangi (Brugia pahangi [1]; 100 mg/kg/day × 5 days, oral, day 56): 32% | Dogs cured/Treated (Brugia pahangi [2]; 50(34 free base) mg/kg/day bid × 5, gelatin capsules): 0/4 | Percent reduction Macrofilariae (Brugia pahangi [2]; [3]): 71% | Percent reduction Microfilariae (Brugia pahangi [2]; [3]): 89% | Dogs cured/Treated (Brugia pahangi [2]; [4]): 0/4 | Percent reduction Microfilariae (Brugia pahangi [2]; [4]): 86% | Percent reduction Macrofilariae (Brugia pahangi [2]; 100(78 free base) mg/kg/day bid × 5, gelatin capsules, not significantly different from control): 23% | Percent reduction Macrofilariae (Brugia pahangi [2]; 200(155 free base) mg/kg/day bid × 1, HEC-Tween 80): 97% | Dogs cured/Treated (Brugia pahangi [2]; 200(155 free base) mg/kg/day bid × 1, HEC-Tween 80, necropsied 6 months): 1/3 | Percent reduction Microfilariae (Brugia pahangi [2]; 200(155 free base) mg/kg/day bid × 1, HEC-Tween 80, not significantly different from control): 77% | Percent reduction Macrofilariae (Brugia pahangi [2]; 200(155 free base) mg/kg/day bid × 3, HEC-Tween 80): 90% | Dogs cured/Treated (Brugia pahangi [2]; 200(155 free base) mg/kg/day bid × 3, HEC-Tween 80, necropsied 6 months): 0/3 | Percent reduction Microfilariae (Brugia pahangi [2]; 200(155 free base) mg/kg/day bid × 3, HEC-Tween 80, not significantly different from control): 71% | Percent reduction Macrofilariae (Brugia pahangi [2]; [5]): 100% | Percent reduction Microfilariae (Brugia pahangi [2]; [5]): 100% | Dogs cured/Treated (Brugia pahangi [2]; 200(155 free base) mg/kg/day bid × 5, HEC-Tween 80, necropsied 6 months): 3/3 | Percent reduction Macrofilariae (Brugia pahangi [2]; [6]): 99% | Percent reduction Microfilariae (Brugia pahangi [2]; [6]): 100% | Dogs cured/Treated (Brugia pahangi [2]; 200(155 free base) mg/kg/day bid × 5, gelatin capsules, necropsied 6 months): 5/6 | Percent reduction Macrofilariae (Brugia pahangi [2]; 200(155 free base) mg/kg/day × 1, HEC-Tween 80): 79% | Dogs cured/Treated (Brugia pahangi [2]; 200(155 free base) mg/kg/day × 1, HEC-Tween 80, necropsied 6 months): 1/3 | Percent reduction Microfilariae (Brugia pahangi [2]; 200(155 free base) mg/kg/day × 1, HEC-Tween 80, not significantly different from control): 74% | Percent reduction Macrofilariae (Brugia pahangi [2]; 200(155 free base) mg/kg/day × 3, HEC-Tween 80): 97% | Dogs cured/Treated (Brugia pahangi [2]; 200(155 free base) mg/kg/day × 3, HEC-Tween 80, necropsied 6 months): 1/3 | Percent reduction Microfilariae (Brugia pahangi [2]; 200(155 free base) mg/kg/day × 3, HEC-Tween 80, not significantly different from control): 78% | cure of B. pahangi infections (Brugia pahangi [2]; oral, 200 mg/kg/day (155 base equivalent) for 1, 3 or 5 days): cured dogs of B. pahangi infections | antifilarial activity in jirds (B. pahangi and A. viteae): outstanding antifilarial activity | solubility (physchem): > 50 mg/mL
